EC50 data for seven molecules are collected here from US12091409B2, “Ether linked triazoles as NRF2 activators” (ASTEX THERAPEUTICS LIMITED, priority 2016, dated 2024).

Usually EC50 stands for the concentration giving half of the maximal effect.

This test relates to NQO1 specific enzyme activity in BEAS-2B cells (marker for NRF2 activation). Kind of test: BEAS-2B NQO1 MTT Assay. To be noted: Homo sapiens, BEAS-2B, 48 h, NQO1 specific activity induction, 48 hours with compound. The class given is cell-based. From the text: NAD(P)H:quinone oxidoreductase 1 (NQO1), also called DT diaphorase, is a homodimeric FAD-containing enzyme that catalyzes obligatory NAD(P)H-dependent two-electron reductions of quinones and protects cells against the toxic and neoplastic effects of free radicals and reactive oxygen species arising from one-electron reductions. The transcription of NQO1 is finely regulated by NRF2, and thus NQO1 activity is a good marker for NRF2 activation. On day one, frozen BEAS-2B cells (ATCC) were thawed in a water bath, counted, and re-suspended at a concentration of 250,000 cells/mL. Fifty microliters of cells were plated in 384 well black clear-bottomed plates. Plates were incubated at 37° C., 5% CO2 overnight. On day two, plates were centrifuged and 50 nL of compound or controls were added to the cells. Plates were then incubated at 37° C., 5% CO2 for 48 hours. On day four, medium was aspirated from the plate and crude cell lysates were made by adding 13 uL of 1× Cell Signaling Technologies lysis buffer with 1 Complete, Mini, EDTA-free Protease Inhibitor Tablet (Roche) for each 10 mL of lysis buffer. After lysis plates were incubated for 20 minutes at room temperature. Two microliters of lysate were removed for use in Cell Titer Glo assay (Promega) and MTT cocktail was prepared (Prochaska et. al. 1998) for measurement of NQO1 activity. Fifty microliters of MTT cocktail was added to each well, plate was centrifuged, and analyzed on an Envision plate reader (Perkin Elmer) using Absorbance 570 nm label for 30 minutes. Product formation was measured kinetically and the pEC50 of NQO1 specific activity induction was calculated by plotting the change in absorbance (Delta OD/min) versus the log of compound concentration followed by 3-parameter fitting.
pEC50 is the negative log of the EC50.
EC50s<1 nM (+++++), EC50s 1 nM-10 nM (++++), EC50s 10 nM-100 nM (+++), EC50s 100 nM-1 uM (++), EC50s 1 uM-10 uM (+); EC50s>10 uM (−), or were not determined (ND).
With `CC[C@@H]1CN(Cc2cc(C(OCc3cn(Cc4cccc(Cn5cc(COC(c6ccc(C)c(CN7C[C@@H](CC)Oc8ccccc8S7(=O)=O)c6)C(C)(C)C(=O)O)nn5)c4)nn3)C(C)(C)C(=O)O)ccc2C)S(=O)(=O)c2ccccc2O1` (stereo partly drawn) [Example 47, (R)-3,3′-(((1,1′-(1,3-phenylenebis(methylene))bis(1H-1,2,3-triazole-4,1-diyl))bis(methylene))bis(oxy))bis(3-(3-(((R)-4-ethyl-1,1-dioxido-3,4-dihydro-2H-benzo[b][1,4,5]oxathiazepin-2-yl)methyl)-4-methylphenyl)-2,2-dimethylpropanoic acid)], the EC50 was in the range of 10 to 100 nM. The result for `Cc1ccc(C(OCc2cn(CC3CC[N+]4(CCOCC4)CC3)nn2)C(C)(C)C(=O)O)cc1CN1CC(C)Oc2ccccc2S1(=O)=O` (stereo in doubt) [Example 56, 3-((1-(3-Oxa-6-azaspiro[5.5]undecan-6-ium-9-ylmethyl)-1H-1,2,3-triazol-4-yl)methoxy)-2,2-dimethyl-3-(4-methyl-3-(((S)-4-methyl-1,1-dioxido-3,4-dihydro-2H-benzo[b][1,4,5]oxathiazepin-2-yl)methyl)phenyl)propanoate] reads 1000 to 10000 nM; that for `CCC(=O)N1CCC(Cn2cc(COC(c3ccc(C)c(CN4C[C@@H](C)Oc5ccccc5S4(=O)=O)c3)C(C)(C)C(=O)O)nn2)CC1` (stereo partly drawn) [Example 33, 2,2-Dimethyl-3-(4-methyl-3-(((R)-4-methyl-1,1-dioxido-3,4-dihydro-2H-benzo[b][1,4,5]oxathiazepin-2-yl)methyl)phenyl)-3-((1-((1-propionylpiperidin-4-yl)methyl)-1H-1,2,3-triazol-4-yl)methoxy)propanoic acid], 10 to 100 nM; that for `CC[C@@H]1CN(Cc2cc([C@@H](OCc3cn(CC)nn3)C(C)(C)C(=O)O)ccc2C)S(=O)(=O)c2ncccc2O1` [Example 82, (R)-3-(3-(((R)-4-ethyl-1,1-dioxido-3,4-dihydro-2H-pyrido[3,2-b][1,4,5]oxathiazepin-2-yl)methyl)-4-methylphenyl)-3-((1-ethyl-1H-1,2,3-triazol-4-yl)methoxy)-2,2-dimethylpropanoic acid], 1 to 10 nM.

Consider `CCCn1cc(CO[C@H](c2ccc(C)c(CN3C[C@H](C)Cc4ccc(C(F)(F)F)cc4S3(=O)=O)c2)C(C)(C)C(=O)O)nn1` [Example 79, (R)-2,2-dimethyl-3-(4-methyl-3-(((R)-4-methyl-1,1-dioxido-8-(trifluoromethyl)-4,5-dihydrobenzo[f][1,2]thiazepin-2(3H)-yl)methyl)phenyl)-3-((1-propyl-1H-1,2,3-triazol-4-yl)methoxy)propanoic acid], for which the EC50 lay in the range of 1 to 10 nM. The result for `Cc1ccc(C(OCc2cn(Cc3cccc(Cn4cc(CCCCO)nn4)c3)nn2)C(C)(C)C(=O)O)cc1CN1C[C@@H](C)Oc2ccccc2S1(=O)=O` (stereo partly drawn) [Example 42, 3-((1-(3-((4-(4-Hydroxybutyl)-1H-1,2,3-triazol-1-yl)methyl)benzyl)-1H-1,2,3-triazol-4-yl)methoxy)-2,2-dimethyl-3-(4-methyl-3-(((R)-4-methyl-1,1-dioxido-3,4-dihydro-2H-benzo[b][1,4,5]oxathiazepin-2-yl)methyl)phenyl)propanoic acid] reads 10 to 100 nM. The result for `Cc1ccc(C(OCc2cn(CC3CCN(C(N)=O)CC3)nn2)C(C)(C)C(=O)O)cc1CN1C[C@@H](C)Oc2ccccc2S1(=O)=O` (stereo partly drawn) [Example 100, 3-((1-((1-Carbamoylpiperidin-4-yl)methyl)-1H-1,2,3-triazol-4-yl)methoxy)-2,2-dimethyl-3-(4-methyl-3-(((R)-4-methyl-1,1-dioxido-3,4-dihydro-2H-benzo[b][1,4,5]oxathiazepin-2-yl)methyl)phenyl)propanoic acid] reads 100 to 1000 nM.
